The results in this text go back to US11976063B2, “Pharmaceutical composition comprising berberine and ursodeoxycholic acid for the treatment of various diseases or disorders” (priority 2014, dated 2024).

Structures can show the parent of a compound that is named as a salt.

Data set [1] has as its system high fat diet (HFD) induced non-alcoholic fatty liver mice. The experiment in a line: High fat diet induced non-alcoholic fatty liver mice model (Example 5). It counts as in vivo, NIH male mice. From the text: This example describes an in vivo efficacy study of BUDCA disclosed in the present invention using a high fat diet (HFD) induced non-alcoholic fatty liver mice model.
91 NIH male mice of 4 weeks old were obtained from Vital River Laboratories (Beijing, China). After acclimatization for one week, 13 mice were selected as control group (Group 1, G1) with normal chow diet fed, and the other 78 mice were fed with HFD (in which 40% of calories is from fat) for 4 weeks to establish an animal model resembling the pathophysiology of non-alcoholic fatty liver in human.
Following 4 weeks of high fat dietary intervention, the 78 mice were divided into 6 groups according to body weight (n=13 per group): • Group 2, G2: Vehicle control (0.5% CMC-Na solution) • Group 3, G3: Low-dose group of BUDCA (30 mg/kg) • Group 4, G4: Middle-dose group of BUDCA (100 mg/kg) • Group 5, G5: High-dose group of BUDCA (300 mg/kg) • Group 6, G6: BBR control group (Berberine HCl, 150 mg/Kg) • Group 7, G7: UDCA control group (Ursodeoxycholic acid, 150 mg/Kg)
The mice from G2 to G7 were administered with the corresponding testing articles indicated above once daily by intragastric gavage. HFD continued throughout the duration of the treatment of 6 weeks. The normal mice (G1) were treated with vehicle (0.5% CMC-Na solution) via intragastric gavage. At the end of experiment, the following biochemical parameters were measured and tests were carried out: • Body weight, the weight ratio of liver • Total cholesterol (TC) and triglyceride (TG) levels, high density lipoprotein cholesterol (HDL-C) and low density lipoprotein cholesterol (LDL-C) levels • Alanine aminotransferase (ALT) and aspartate aminotransferase (AST) levels • Superoxide dismutase (SOD) activity and malondialdehyde (MDA) level • Oral glucose tolerance test (OGTT) • Histopathological examination of liver ([…] staining)
After 6 weeks treatment, blood was collected via retro-orbital bleeding of each 12-hour fasted animal. Liver was harvested by surgery for histopathology analysis after weight measurement. Then the serum was isolated for the determination of TC, TG, HDL-C, LDL-C, ALT, AST, SOD and MDA.
One week before sacrifice (Week 5 of treatment), an oral glucose tolerance test (OGTT) was performed in 12-hour fasted animals. For the OGTT, all mice received an oral glucose challenge at 2.0 g/Kg and the blood glucose concentrations were determined by glucometer (ACCU-CHEK Active, Roche) at 0, 30, 60, 90 and 120 min.
The liver tissue was histopathologically evaluated by […] staining after frozen section.

The subject of data set [2] is high fat diet (HFD) and streptozotocin (STZ) induced diabetic mice. It counts as in vivo. Here is the method: This example describes an in vivo efficacy study of the combinations disclosed in the present invention using a high fat diet (HFD) and streptozotocin (STZ) induced diabetic mice model.
Sixty NIH male mice of 4 weeks old were acquired from Guangzhou Institute of Laboratory Animal. After acclimatization for one week, five mice were selected as normal control group (Group 1), the rest fifty-five mice were administered single dose of STZ at the dose of 40 mg/kg, and fed with HFD (in which 40% of calories is from fat) for 7 days to establish a diabetic animal model resembling the pathophysiology of type 2 diabetes in human. Mice in the normal control group were not administered STZ, and fed with normal chow diet.
The mice from Group 2 to 5 were treated with the corresponding testing articles indicated above once daily by intragastric gavage. HFD continued throughout the duration of the treatment of 28 days. The normal mice (Group 1) were treated with normal saline by intragastric gavage. Fasting blood glucose, total cholesterol (TC) and triglyceride (TG) levels, food intake, water intake and body weight were measured throughout the study.
On day 28 of the treatment, an oral glucose tolerance test (OGTT) was performed in 12-hour fasted animals. For the OGTT, after the measurement of the basal glucose concentration (T=−30 min), mice received an oral glucose challenge at 2.5 g/kg and glucose values were determined by glucometer (ACCU-CHEK Active, Roche) at 0, 30, 60 and 120 min.
After OGTT, blood samples were collected for the measurement of blood glucose, TC and TG. The mice were sacrificed, and the pancreas, liver, kidney and fat were harvested for histopathology analysis.

For data set [3], the system named is high fat diet (HFD) induced obesity mice. The experiment in a line: High fat diet induced obesity mice model (Example 2). The format is in vivo, NIH male mice. To be noted: used individually at 50 mg/Kg, once daily i.g., interim results at 15 days. From the text:
This example describes an in vivo efficacy study of the combinations disclosed in the present invention using a high fat diet (HFD) induced obesity mice model.
Fifty NIH male mice of 4 weeks old were acquired (Guangzhou Institute of Laboratory Animal). After acclimatization for one week, eight mice were selected as normal control; the rest forty-two mice were fed with HFD (in which 40% of calories is from fat) for 14 days to establish a HFD induced obesity mice model resembling the pathophysiology of metabolic syndrome in human. Normal control mice were fed with normal chow diet. […]
The mice from Group 1 to 4 were treated with the corresponding testing articles indicated above once daily by intragastric gavage. […] Blood glucose (fasting and non-fasting), total cholesterol (TC) and triglyceride (TG) levels, food intake, water intake and body weight were measured throughout the study.
On day 28 of the treatment, an oral glucose tolerance test (OGTT) was performed in 12-hour fasted animals. For the OGTT, after the measurement of the basal glucose concentration (T=−30 min), mice received an oral glucose challenge at 2.5 g/Kg and glucose values were determined by glucometer (ACCU-CHEK Active, Roche) at 0, 30, 60 and 120 min. […]

Setting [4] is: 150 mg/Kg (G6 Berberine HCl; G7 UDCA), i.g. once daily, 6 weeks, HFD, mean ± S.E.M.
The mark [5] stands for this setting: serum, 150 mg/Kg (G6 Berberine HCl; G7 UDCA), i.g. once daily, 6 weeks, HFD, mean ± S.E.M.
[6] abbreviates: Day 0 (before treatment), same doses.
Where [7] appears, read: Day 3, same doses, once daily i.g.
The mark [8] stands for this setting: Day 27, same doses, once daily i.g.
The mark [9] stands for this setting: Day 28, same doses, once daily i.g.

As to `COc1ccc2cc3[n+](cc2c1OC)CCc1cc2c(cc1-3)OCO2` [Berberine HCl, reference compound], in data set [1] (setting [4]), the Body weight was determined as 42.4 ± 1.37 g and the “Weight ratio of liver” value is on record as 4.26 ± 0.12%. In data set [1] (setting [5]), this compound had an ALT of 37.1 ± 4.08 U/L, an AST of 198.7 ± 18.93 U/L, an HDL-C of 2.47 ± 0.20 mmol/L and an LDL-C of 1.42 ± 0.21 mmol/L. Moreover, in data set [1] (setting [5]), the MDA was 9.3 ± 2.14 µM, the SOD is reported as 77.03 ± 8.98 U/mL, the TC was found to be 5.97 ± 0.47 mmol/L and the TG was 1.00 ± 0.08 mmol/L.
As for `CN(C)C(=N)NC(=N)N` [Metformin, N,N-Dimethylimidodicarbonimidic diamide], in data set [2] (28 days treatment, HFD/STZ mice), the “Effect on symptoms of diabetes (overall efficacy)” value is listed as “did not demonstrate a clear efficacy”. Moreover, in data set [2] (Day 0 (before treatment), metformin 300 mg/kg, berberine 150 + UA 150 mg/kg, berberine 150 + EPA 75 + DHA 75 mg/kg), the “Fasting blood glucose, Day 0” value was found to be 24.08 ± 5.44 mmol/L. For the same compound, the “Weight, Day 0” value in data set [2] (Day 0 (before treatment), metformin 300 mg/kg, berberine 150 + UA 150 mg/kg, berberine 150 + EPA 75 + DHA 75 mg/kg, once daily i.g.) stood at 26.30 ± 2.54 g. In data set [2] (setting [6]), the “Total Cholesterol, Day 0” value was found to be 297.96 ± 67.09 mg/dL and the “Triglyceride, Day 0” value is on record as 2.40 ± 1.03 mmol/L. Also, in data set [2] (setting [7]), the “Food Intake, Day 3” value worked out at 8.66 g and the “Water intake, Day 3” value was 19.40 mL. Further, in data set [2] (Day 6, same doses, once daily i.g.), the “Water intake, Day 6” value turned out to be 23.60 mL. The “Weight, Day 27” value in data set [2] (Day 27, metformin 300 mg/kg, berberine 150 + UA 150 mg/kg, berberine 150 + EPA 75 + DHA 75 mg/kg, once daily i.g.) stood at 36.99 ± 3.90 g. Moreover, in data set [2] (setting [8]), the “Food Intake, Day 27” value is listed as 9.37 g and the “Water intake, Day 27” value came to 34.40 mL. In addition, in data set [2] (setting [9]), the “Fasting blood glucose, Day 28” value was found to be 21.66 ± 4.71 mmol/L; the “Total Cholesterol, Day 28” value was 436.99 ± 159.73 mg/dL; the “Triglyceride, Day 28” value came to 6.06 ± 6.71 mmol/L.
In the case of `C[C@H](CCC(=O)O)[C@H]1CC[C@H]2[C@@H]3[C@@H](O)C[C@@H]4C[C@H](O)CC[C@]4(C)[C@H]3CC[C@]12C` [UDCA, 3α,7β-dihydroxy-5β-cholan-24-oic acid, reference compound], in data set [1] (setting [4]), the Body weight was 42.0 ± 1.16 g and the “Weight ratio of liver” value was found to be 4.77 ± 0.26%. Besides, in data set [1] (setting [5]), the ALT is given as 30.6 ± 5.73 U/L, the AST is 162.86 ± 29.42 U/L, the HDL-C worked out at 2.13 ± 0.33 mmol/L and the LDL-C worked out at 1.37 ± 0.26 mmol/L. In data set [1] (setting [5]), this compound had an SOD of 44.75 ± 11.99 U/mL, a TC of 4.77 ± 0.70 mmol/L and a TG of 1.20 ± 0.22 mmol/L.
Turning to `COc1ccc2cc3[n+](cc2c1OC)CCc1cc2c(cc1-3)OCO2` [berberine, 5,6-dihydro-9,10-dimethoxybenzo[g]-1,3-benzodioxolo[5,6-a]quinolizinium], the “Pharmacological effects comparing to the vehicle control group” value in data set [3] was “neither berberine (Group 2), nor hydroxycitric acid (Group 3) demonstrated any pharmacological effects”. The “Animals showing gastrointestinal side effects at the time of sacrifice” value in data set [1] (berberine treatment group (150 mg/Kg), 6 weeks i.g.) is 50 % of animals.
With `O=C(O)CC(O)(C(=O)O)C(O)C(=O)O` (stereo not drawn) [hydroxycitric acid, 1,2-dihydroxypropane-1,2,3-tricarboxylic acid], in data set [3], the “Pharmacological effects comparing to the vehicle control group” value is reported as “neither berberine (Group 2), nor hydroxycitric acid (Group 3) demonstrated any pharmacological effects”.
